B1: full length recombinant FKBP-L: recombinant full length his-tagged FKBP-L protein (SEQ ID NO: 1) expressed in BL21 (DE3) (protein, listed as Homo sapiens)
chain: MRGSHHHHHHGMASMTGGQQMGRDLYDDDDKDRWGSMETPPVNTIGEKDTSQPQQEWEKNLRENLDSVIQIRQQPRDPPTETLELEVSPDPASQILEHTQGAEKLVAELEGDSHKSHGSTSQMPEALQASDLWYCPDGSFVKKIVIRGHGLDKPKLGSCCRVLALGFPFGSGPPEGWTELTMGVGPWREETWGELIEKCLESMCQGEEAELQLPGHTGPPVGLTLASFTQGRDSWELETSEKEALAREERARGTELFRAGNPEGAARCYGRALRLLLTLPPPGPPERTVLHANLAACQLLLGQPQLAAQSCDRVLEREPGHLKALYRRGVAQAALGNLEKATADLKKVLAIDPKNRAAQEELGKVVIQGKNQDAGLAQGLRKMFG
modifications: His tag

Tests used:
Type in all cases: cell-based
[1] = tested on: MDA-231 (breast; CD44+ve); assay: cell invasion in a modified Boyden chamber system, MDA-231; conditions: 24 h
Description: Twelve well plate polycarbonate inserts were divided into two groups with half remaining uncoated and half coated with 100 μg/cm^2 of Matrigel. The coated inserts were allowed to dry overnight at room temperature in a sterile tissue culture hood. The required cell line; HMEC-1, PC3 or MDA231 was trypsinised, re-suspended in fresh medium and the cell number calculated. 5×10^5 cells, in a total volume of 500 μl, were added to the insert (top chamber) and 1.5 ml of complete medium added to the bottom chamber of the plate as a stimulus for invasion. FKBP-L 24mer was added to both the upper and lower chamber of the plate at the required concentration in the experimental wells. The plate was incubated for 24 h (PC3 or MDA231) or 48 h (HMEC-1).
The inserts were carefully removed from their 12 well plate and inserts without Matrigel coating were placed directly into Carnoys fixative. […]
The polycarbonate inserts were cut from the holders and placed on to mounting medium on a microscope slide. […] The slides were stored at 4° C. until analysed.
Ten images from each insert were captured and the number of fluorescent cells per image was analysed by Lucia Imaging software. The ratio of cells visible on non-coated inserts compared to cells visible on Matrigel coated inserts was expressed as % invasion. […]

[2] = tested on: mouse endothelial cells, 2H-11; assay: wound scrape assay in a mouse endothelial cell line; conditions: 10^−14-10^−7 M; 7 hours
Description: This experiment evaluated the ability of the FKBP-L 24mer to inhibit endothelial cell migration over a dose ranges spanning from 10^−14 M to 10^−7 M. The in vitro migration assay used in these studies is a modified version of the method described by Ashton et al (1999) see supra. In this assay mouse endothelial cells, 2H-11, were obtained from the American Tissue Culture Collection and were grown in D-MEM containing 10% FCS. They were plated into individual chambers on a glass slide and grown to 90% confluence overnight. The medium was removed and the monolayer wounded. The monolayer was re-supplemented with fresh medium and the required volume of the FKBPL 24mer peptide was added to achieve a dose range from 10^−14-10^−7 M. The monolayers were incubated for 7 hours and then fixed in 4% PBS buffered paraformaldehyde.
The extent of “wound” closure was blindly assessed microscopically by an independent investigator and quantified using a calibrated eyepiece graticule (1 mm/100 μm graduation) at 20× magnification (Olympus BX 50). The extent of closure in the FKBP-L 24mer treated slides was compared to time matched sham treated controls and the % inhibition of wound closure compared to time matched controls calculated.

[3] = tested on: HT29 (Colorectal tumor cell line; CD44 +ve); assay: tumor cell migration, wound closure assay, HT29; conditions: 24 hours
Description: In these experiments, the effect of recombinant FKBP-L on tumor cell migration was assessed. The in vitro migration assay used in these studies is a modified version of the method described by Ashton et al (1999) see supra. PC3, MDA231, and HT29 tumor cells were plated into individual chambers on a glass slide and grown to 90% confluence overnight. The medium was removed and the monolayers wounded. The monolayer was re-supplemented with fresh medium and the required volume of His-tagged recombinant FKBP-L protein (SEQ ID NO: 1) was added to give the final concentrations shown. The monolayers were incubated for 24 hours and then fixed in 4% PBS buffered paraformaldehyde.
The extent of “wound” closure was blindly assessed microscopically by an independent investigator and quantified using a calibrated eyepiece graticule (1 mm/100 μm graduation) at 20× magnification (Olympus BX 50). The extent of closure in the FKBP-L treated slides was compared to time matched sham-treated controls and the percent inhibition of wound closure compared to time matched controls calculated. […]
The extent of “wound” closure was blindly assessed microscopically by an independent investigator and quantified using a calibrated eyepiece graticule (1 mm/100 μm graduation) at 20× magnification (Olympus BX 50). […]

Row | Molecule | effect on cell invasion through Matrigel [1] | effect on wound closure in mouse endothelial cells [2] | effect on tumor cell migration [3]
1 | H-QIRQQPRDPPTETLELEVSPDPAS-OH [FKBP-L 24mer] | potent inhibitor | inhibited wound closure | 
2 | B1 |  |  | inhibits tumor cell migration in a dose-dependent manner
